Key:
[1] = tested on: TRE3G-GFP reporter gene; test: TRE3G-GFP reporter gene activation in HCT116, dCas9 + MS2-FKBP*x2 (F36V) system, flow cytometry; format: cell-based, human; design: fold change, GFP: reference not given here; details: for fold change, GFP: FIG. 5A; for fold change, GFP / fold change, GFP (TRE3G gRNA vs NT gRNA): 10 nM; for fold change, GFP (TRE3G gRNA vs NT gRNA): FIG. 1C, 48 hours; for % repress, GFP (no AP1867 vs AP1867 added): FIG. 1D
[2] = tested on: CXCR4; test: CXCR4 mRNA activation in HCT116 stably expressing dCas9 and MS2-FKBP*x2, qRT-PCR; format: cell-based, human; details: FIG. 2C; 5 nM; 48 hrs
Method: To further explore the activation potential of the SLF*-CEMa, their ability to target endogenous genes was evaluated (FIGS. 2A and 2B). Lentivirus was used to establish a stable HCT116 cell line expressing dCas9 and MS2-FKBP*x2 constructs, selecting for cells with antibiotic resistance. […] All CEMs were screened for their ability to activate the CXCR4 gene at 5 nM (FIG. 2C). RNA extraction and quantitative RT-PCR (qRT-PCR) were performed after 48 hours of CEM treatment.
To determine the optimal treatment concentration of the SLF*-CEMa molecules in this context, HCT116 cells were treated with 1 nM, 5 nM, 25 nM, and 50 nM of CEM203, CEM207, or CEM87. […] After 48 hours, RNA extraction followed by qRT-PCR was performed to evaluate the change in mRNA expression of CXCR4 (FIG. 2D). […] To directly compare this induced activation to other CRISPR-Cas9-based epigenetic activators, dCas9-VPR and dCas9-p300 constructs were virally infected into HCT116 cells and CXCR4 activation assessed in a similar fashion (FIGS. 2A and 2B).
To determine the time at which SLF*-CEMa most effectively induces gene activation, CXCR4 gene expression changes over time were investigated in dCas9 and MS2-FKBP*x2 stably infected HCT116 cells. Cells were treated with either vehicle, […] (FIG. 3A). RNA extraction and qRT-PCR were performed at 12, 24, 48, 72, and 96 hrs time points (FIG. 3B).
To investigate if endogenous gene activation triggered by the SLF*-CEMa compounds is also reversible, HCT116 cells were treated with CEM203 (50 nM) or CEM207 (25 nM) for 24 hours after transfecting CXCR4 gRNA, and then the CEMs were removed by media exchange at various time points. […] Likewise, it was investigated whether treatment with excess AP1867 could further reverse gene activation, potentially in a more robust fashion than with washout alone if there is any remaining intracellular SLF*-CEMa. To test this, after 24 hours of SLF*-CEMa treatment, a media exchange containing 20 μM AP1867 was performed (FIGS. 3C and 3D).
RNA extraction and qRT-PCR. All RNA extraction experiments were conducted in 12-well plate format. Culturing medium was removed, and cells were washed with 1×PBS, following with 0.05% trypsin to disassociate. After being quenched by medium and centrifuged, cells were washed with 1×PBS, and the RNA extraction was performed by using RNeasy Plus Mini kit (Qiagen, 74134). RT-qPCR was conducted by using RNA-to CT 1-step kit (Thermo Fisher Scientific, 4389986). The primer sets used in quantifying each gene can be found in Table 4.

Structure (SMILES) | fold change, GFP ([1]; NT gRNA, 48 hrs) [fold] | fold change, GFP ([1]; TRE3G gRNA, 48 hrs) [fold] | fold change, CXCR4 mRNA (Treated vs Non-Treated) [2] [fold] | fold change, GFP (TRE3G gRNA vs NT gRNA) [1] [fold] | % repress, GFP (no AP1867 vs AP1867 added) ([1]; TRE3G gRNA, CEM207 5 nM + AP1867 5 μM) [%] | % repress, GFP (no AP1867 vs AP1867 added) ([1]; TRE3G gRNA, CEM207 5 nM + AP1867 10 μM) [%] | % repress, GFP (no AP1867 vs AP1867 added) ([1]; TRE3G gRNA, CEM207 5 nM + AP1867 20 μM) [%] | fold change, GFP (no AP1867 vs AP1867 added) ([1]; FIG. 5B, TRE3G gRNA, CEM207 5 nM + AP1867 500 nM, 48 hrs)
CC[C@H](C(=O)N1CCCC[C@H]1C(=O)O[C@H](CCc1ccc(OC)c(OC)c1)c1cccc(OCC(=O)NCCOCCOCCOCCOCCOCCOCCOCCNC(=O)C[C@@H]2N=C(c3ccc(Cl)cc3)c3cc(OC)ccc3-n3c(C)nnc32)c1)c1cc(OC)c(OC)c(OC)c1 [CEM206, (1R)-1-(3-((29-((4S)-6-(4-Chlorophenyl)-8-methoxy-1-methyl-4H-benzo[f][1,2,4]triazolo[4,3-a][1,4]diazepin-4-yl)-2,28-dioxo-6,9,12,15,18,21,24-heptaoxa-3,27-diazanonacosyl)oxy)phenyl)-3-(3,4-dimethoxyphenyl) propyl (2S)-1-((S)-2-(3,4,5-trimethoxyphenyl)butanoyl) piperidine-2-carboxylate] | 0.3 | 8.5 | 13.9 |  |  |  |  | 
CC[C@H](C(=O)N1CCCC[C@H]1C(=O)O[C@H](CCc1ccc(OC)c(OC)c1)c1cccc(OCC(=O)NCCOCCOCCOCCNC(=O)C[C@@H]2N=C(c3ccc(Cl)cc3)c3c(sc(C)c3C)-n3c(C)nnc32)c1)c1cc(OC)c(OC)c(OC)c1 [CEM208, (R)-1-(3-((17-((S)-4-(4-Chlorophenyl)-2,3,9-trimethyl-6H-thieno[3,2-f][1,2,4]triazolo[4,3-a][1,4]diazepin-6-yl)-2,16-dioxo-6,9,12-trioxa-3,15-diazaheptadecyl)oxy)phenyl)-3-(3,4-dimethoxyphenyl) propyl(S)-1-((S)-2-(3,4,5-trimethoxyphenyl)butanoyl) piperidine-2-carboxylate] | 0.4 | 8.1 | 11.5 |  |  |  |  | 
CC[C@H](C(=O)N1CCCC[C@H]1C(=O)O[C@H](CCc1ccc(OC)c(OC)c1)c1cccc(OCC(=O)NCCOCCOCCOCCOCCOCCNC(=O)C[C@@H]2N=C(c3ccc(Cl)cc3)c3c(sc(C)c3C)-n3c(C)nnc32)c1)c1cc(OC)c(OC)c(OC)c1 [CEM210, (R)-1-(3-((23-((S)-4-(4-Chlorophenyl)-2,3,9-trimethyl-6H-thieno[3,2-f][1,2,4]triazolo[4,3-a][1,4]diazepin-6-yl)-2,22-dioxo-6,9,12,15,18-pentaoxa-3,21-diazatricosyl)oxy)phenyl)-3-(3,4-dimethoxyphenyl) propyl(S)-1-((S)-2-(3,4,5-trimethoxyphenyl)butanoyl) piperidine-2-carboxylate] | 0.4 | 8.5 | 12.0 |  |  |  |  | 
CC[C@H](C(=O)N1CCCC[C@H]1C(=O)O[C@H](CCc1ccc(OC)c(OC)c1)c1cccc(OCC(=O)NCCOCCOCCOCCOCCOCCNC(=O)C[C@@H]2N=C(c3ccc(Cl)cc3)c3cc(OC)ccc3-n3c(C)nnc32)c1)c1cc(OC)c(OC)c(OC)c1 [CEM204, (1R)-1-(3-((23-((4S)-6-(4-Chlorophenyl)-8-methoxy-1-methyl-4H-benzo[f][1,2,4]triazolo[4,3-a][1,4]diazepin-4-yl)-2,22-dioxo-6,9,12,15,18-pentaoxa-3,21-diazatricosyl)oxy)phenyl)-3-(3,4-dimethoxyphenyl) propyl (2S)-1-((S)-2-(3,4,5-trimethoxyphenyl)butanoyl) piperidine-2-carboxylate] | 0.3 | 5.7 | 7.2 |  |  |  |  | 
CC[C@H](C(=O)N1CCCC[C@H]1C(=O)O[C@H](CCc1ccc(OC)c(OC)c1)c1cccc(OCC(=O)NCCOCCOCCOCCOCCOCCOCCNC(=O)C[C@@H]2N=C(c3ccc(Cl)cc3)c3cc(OC)ccc3-n3c(C)nnc32)c1)c1cc(OC)c(OC)c(OC)c1 [CEM205, (1R)-1-(3-((26-((4S)-6-(4-Chlorophenyl)-8-methoxy-1-methyl-4H-benzo[f][1,2,4]triazolo[4,3-a][1,4]diazepin-4-yl)-2,25-dioxo-6,9,12,15,18,21-hexaoxa-3,24-diazahexacosyl)oxy)phenyl)-3-(3,4-dimethoxyphenyl) propyl (2S)-1-((S)-2-(3,4,5-trimethoxyphenyl)butanoyl) piperidine-2-carboxylate] | 0.4 | 6.9 | 8.8 |  |  |  |  | 
CC[C@H](C(=O)N1CCCC[C@H]1C(=O)O[C@H](CCc1ccc(OC)c(OC)c1)c1cccc(OCC(=O)NCCOCCOCCOCCOCCOCCOCCNC(=O)C[C@@H]2N=C(c3ccc(Cl)cc3)c3c(sc(C)c3C)-n3c(C)nnc32)c1)c1cc(OC)c(OC)c(OC)c1 [CEM211, (R)-1-(3-((26-((S)-4-(4-Chlorophenyl)-2,3,9-trimethyl-6H-thieno[3,2-f][1,2,4]triazolo[4,3-a][1,4]diazepin-6-yl)-2,25-dioxo-6,9,12,15,18,21-hexaoxa-3,24-diazahexacosyl)oxy)phenyl)-3-(3,4-dimethoxyphenyl) propyl(S)-1-((S)-2-(3,4,5-trimethoxyphenyl)butanoyl) piperidine-2-carboxylate] | 0.4 | 7.8 | 8.5 |  |  |  |  | 
CC[C@H](C(=O)N1CCCC[C@H]1C(=O)O[C@H](CCc1ccc(OC)c(OC)c1)c1cccc(OCC(=O)NCCOCCOCCOCCOCCOCCOCCOCCNC(=O)C[C@@H]2N=C(c3ccc(Cl)cc3)c3c(sc(C)c3C)-n3c(C)nnc32)c1)c1cc(OC)c(OC)c(OC)c1 [CEM212, (R)-1-(3-((29-((S)-4-(4-Chlorophenyl)-2,3,9-trimethyl-6H-thieno[3,2-f][1,2,4]triazolo[4,3-a][1,4]diazepin-6-yl)-2,28-dioxo-6,9,12,15,18,21,24-heptaoxa-3,27-diazanonacosyl)oxy)phenyl)-3-(3,4-dimethoxyphenyl) propyl(S)-1-((S)-2-(3,4,5-trimethoxyphenyl)butanoyl) piperidine-2-carboxylate] | 0.4 | 6.1 | 12.6 |  |  |  |  | 
CC[C@H](C(=O)N1CCCC[C@H]1C(=O)O[C@H](CCc1ccc(OC)c(OC)c1)c1cccc(OCC(=O)NCCOCCOCCOCCOCCNC(=O)C[C@@H]2N=C(c3ccc(Cl)cc3)c3c(sc(C)c3C)-n3c(C)nnc32)c1)c1cc(OC)c(OC)c(OC)c1 [CEM209, (R)-1-(3-((20-((S)-4-(4-Chlorophenyl)-2,3,9-trimethyl-6H-thieno[3,2-f][1,2,4]triazolo[4,3-a][1,4]diazepin-6-yl)-2,19-dioxo-6,9,12,15-tetraoxa-3,18-diazaicosyl)oxy)phenyl)-3-(3,4-dimethoxyphenyl) propyl(S)-1-((S)-2-(3,4,5-trimethoxyphenyl)butanoyl) piperidine-2-carboxylate] | 0.5 | 4.3 | 11.1 |  |  |  |  | 
CCNC(=O)C[C@@H]1N=C(c2ccc(Cl)cc2)c2cc(OC)ccc2-n2c(C)nnc21 [iBET762, reference compound] |  |  |  | 2.4 |  |  |  | 
CC[C@H](C(=O)N1CCCC[C@H]1C(=O)O[C@H](CCc1ccc(OC)c(OC)c1)c1cccc(OCC(=O)O)c1)c1cc(OC)c(OC)c(OC)c1 [AP1867, reference compound] |  |  |  | 1.4 | 45 | 84 | 91 | No change in GFP expression
CC[C@H](C(=O)N1CCCC[C@H]1C(=O)O[C@H](CCc1ccc(OC)c(OC)c1)c1cccc(OCC(=O)NCCOCCOCCNC(=O)C[C@@H]2N=C(c3ccc(Cl)cc3)c3cc(OC)ccc3-n3c(C)nnc32)c1)c1cc(OC)c(OC)c(OC)c1 [CEM201, (1R)-1-(3-((14-((4S)-6-(4-Chlorophenyl)-8-methoxy-1-methyl-4H-benzo[f][1,2,4]triazolo[4,3-a][1,4]diazepin-4-yl)-2,13-dioxo-6,9-dioxa-3,12-diazatetradecyl)oxy)phenyl)-3-(3,4-dimethoxyphenyl) propyl (2S)-1-((S)-2-(3,4,5-trimethoxyphenyl)butanoyl) piperidine-2-carboxylate] | 0.6 | 8.2 | 5.8 |  |  |  |  | 

From patent US20250177566A1, “USE OF CHEMICAL EPIGENETIC MODIFIERS TO MODULATE GENE EXPRESSION” (The University of North Carolina at Chapel Hill, priority 2022, published 2025)
